PMC12477777, “Human exposure to green spaces and monoterpenes: discovery and use of α-pinene metabolites as biomarkers” (Environment international, 2025)

Key:
[1] = Urinary aPM after 4 h greenness (forest) exposure; format: in vivo, human; set-up: Maximum response: unit not given here; settings: for Frequency of occurrence / Maximum response: human urine, greenness exposure; for Proportion (observed) after greenness exposure: share of total aPM response
Protocol: (§1) Briefly, for controlled inhalation experiments, eight healthy volunteers were exposed to α-pinene in a custom-built exposure chamber via inhalation from a 15 ml conical tube, containing approximately 100 μl α-pinene, for a duration of 10 min. Urine samples were collected before exposure (0 h) and 0.5, 1, 2, 3, and 4 h after exposure. […] Urine samples were collected both before (0 h) or 4 h after exposure. After collection, the urine samples were centrifuged and stored at −80 °C before analysis. […] Demographic information, including sex, age and race, can be found in Table S1.
(§2) Briefly, after 1:10 dilution, urine samples were separated using an Acquity I-Class UPLC system with an Acquity Premier CSH C18 UPLC column (Waters, MA) with a gradient comprising 0.1 % formic acid in water as the solvent A and 0.1 % formic acid in acetonitrile as the solvent B. Mass Spectrometry Elevated Energy (MS^E) data were collected using a Waters Synapt XS MS (Waters, MA) with an ESI ion source operated in the negative mode. Subsequent analyses of raw files were performed using UNIFI 1.9 and Progenesis QI 3.0 (both from Waters, MA). To validate LC-MS performance, one quality control (QC) sample, prepared by pooling equal amount of each urine sample, was injected after every ten urine sample injections.
(§3) Relative quantification of aPM was performed based on the peak responses normalized to urinary creatinine levels. Urinary creatinine levels were measured using an Ace Axcel Clinical Chemistry System with ACE Creatinine Reagent from Alfa Wassermann (West Caldwell, NJ). Statistical analyses, including ANOVA and Student’s t-tests, were conducted using SAS 9.4 (SAS Institute, NC) to explore differences in aPM across various time points. […] A threshold for statistical significance was defined as p < 0.05.

[2] = Relative quantification of urinary aPM (UPLC-QTOF-MS, creatinine-normalized) after controlled α-pinene inhalation; format: in vivo, human; settings: for Frequency of occurrence (percentage of samples with analyte detected) / Maximum response (highest peak response across all urine samples) / Observed Tmax: human urine after α-pinene inhalation; for Proportion (observed) after α-pinene inhalation: share of total response of 22 aPM, averaged over post-exposure samples
Protocol: as §1, §2, §3

[3] = Kinetic modeling of urinary aPM with a pseudo one-compartment nonlinear mixed-effects model after α-pinene inhalation; format: in vivo, human; settings: for F (%), fraction of metabolite generated from absorbed α-pinene: human urine after 10 min α-pinene inhalation, F normalized to the sum of 22 detected metabolites; for Elimination t1/2 / Ka, first-order generation constant / Ke, first-order elimination rate constant: human urine after α-pinene inhalation, pseudo one-compartment model
Text: In this equation, i represents the participant index, j the urine sample index, C the creatinine-normalized peak response, and t the sample collection time ( h).Ka denotes the first-order generation constant ( h^−1 ), and Ke denotes the first-order elimination rate constant h^−1 . F indicates the fraction of specific aPM relative to absorbed α-pinene. The variables D and V refer to the absorbed α-pinene amount and the distribution volume, respectively. Because input data were derived from relative quantification, absolute values of D , V , and F were not available. For simplicity, D and V were fixed at 100 and 1, respectively, and F was normalized relative to the sum of all detected aPM. The error term ε accounts for residual variation.

[4] = aPM in mouse urine after i.p. injection of (+)-α-pinene or (−)-α-pinene; format: in vivo, mice (C57BL/6); settings: for (1R)-(+)-α-Pinene (Average), proportion of aPM in mouse urine / (1S)-(−)-α-Pinene (Average), proportion of aPM in mouse urine: mouse urine collected overnight, 50 mg/kg; for (1R)-(+)-α-Pinene (Average), proportion of aPM in mouse urine: 50 mg/kg i.p. (+)-α-pinene; for (1S)-(−)-α-Pinene (Average), proportion of aPM in mouse urine: 50 mg/kg i.p. (−)-α-pinene; for R/(R+S): mouse urine, enantiomer specificity; for Detection in mouse urine: after exposure to either α-pinene enantiomer
Protocol: Mouse urine was collected after exposures to either (+) or (−) α-pinene to distinguish between metabolites of different enantiomers of α-pinene. Adult male mice (C57BL/6) were intraperitoneally administered with 50 mg/kg body weight of (+)-α-pinene or (−)-α-pinene dissolved in 100 μl sterile saline with 1 % Tween 80.

Molecule	Frequency of occurrence [1] [%]	Frequency of occurrence (percentage of samples with analyte detected) [2] [%]	Maximum response (highest peak response across all urine samples) [2]	Observed Tmax [2] [h]	Proportion (observed) after α-pinene inhalation [2] [%]	F (%), fraction of metabolite generated from absorbed α-pinene [3] [%]	Elimination t1/2 [3] [min]	Ka, first-order generation constant [3] [h⁻¹]	Ke, first-order elimination rate constant [3] [h⁻¹]	(1R)-(+)-α-Pinene (Average), proportion of aPM in mouse urine [4] [%]	(1S)-(−)-α-Pinene (Average), proportion of aPM in mouse urine [4] [%]	R/(R+S) [4] [%]	Maximum response [1]	Proportion (observed) after greenness exposure [1] [%]	Detection in mouse urine [4]
CC1(C)C2CC=C(C(=O)OC3OC(C(=O)O)C(O)C(O)C3O)C1C2 (single isomer, unassigned) [aPM3a, Myrtenic acid-GlcA]	0.0	93.8	50629	1	3.2	2.92 ± 0.94	55.8 ± 16.2	1.80 ± 0.67	0.75 ± 0.22	0.0	10.0	0			
CC1(C)C2CC=C(C(=O)OC3OC(C(=O)O)C(O)C(O)C3O)C1C2 (single isomer, unassigned) [aPM3b, Myrtenic acid-GlcA]	87.5	100.0	352366	1			36.6 ± 7.8	1.98 ± 0.60	1.13 ± 0.24	1.6	2.7	37.5	2516	17.7	present in murine samples
CC1(C)C2CCC(C(=O)OC3OC(C(=O)O)C(O)C(O)C3O)C1C2 (single isomer, unassigned) [aPM4a, Dihydromyrtenic acid-GlcA]	6.3	89.6	72991	1	2.4	3.19 ± 1.11	42.6 ± 13.2	2.12 ± 0.87	0.98 ± 0.30	0.0	5.0	0.0	53	0.0	
CC1(C)C2CCC(C(=O)OC3OC(C(=O)O)C(O)C(O)C3O)C1C2 (single isomer, unassigned) [aPM4b, Dihydromyrtenic acid-GlcA]	0.0	81.3	14109	1	1.2	1.47 ± 0.63	47.4 ± 15.6	1.34 ± 0.47	0.87 ± 0.28	0.0	4.2	0.0			
CC1(C)C2CCC(C(=O)OC3OC(C(=O)O)C(O)C(O)C3O)C1C2 (single isomer, unassigned) [aPM4c, Dihydromyrtenic acid-GlcA]	0.0	89.6	5156	1	0.5	0.26 ± 0.08	90.6 ± 32.4	1.65 ± 0.67	0.46 ± 0.16	0.0	0.1	0.0			
CC1(C)C2CCC(C(=O)OC3OC(C(=O)O)C(O)C(O)C3O)C1C2 (single isomer, unassigned) [aPM4d, Dihydromyrtenic acid-GlcA]	68.8	97.9	183468	1		13.03 ± 5.57	60.6 ± 24	0.73 ± 0.29	0.68 ± 0.27	0.0	0.2	0.0	7375	9.4	present in murine samples
CC1(C)C2CCC(C(=O)OC3OC(C(=O)O)C(O)C(O)C3O)C1C2 (single isomer, unassigned) [aPM4e, Dihydromyrtenic acid-GlcA]	93.8	95.8	241782	1		18.14 ± 6.52	59.4 ± 19.8	1.26 ± 0.50	0.70 ± 0.24	0.1	0.2	24.1	27114	67.8	present in murine samples
CC1(C)C2CC1C(OC1OC(C(=O)O)C(O)C(O)C1O)C=C2C(=O)O (single isomer, unassigned) [aPM5a, Myrtenic acid-4-O-GlcA]	0.0	79.2	4787	1	0.3	0.25 ± 0.09	60 ± 22.8	1.64 ± 0.77	0.70 ± 0.27	0.0	0.1	0			
CC1(C)C2CC1C(OC1OC(C(=O)O)C(O)C(O)C1O)C=C2C(=O)O (single isomer, unassigned) [aPM5b, Myrtenic acid-4-O-GlcA]	6.3	91.7	22121	1	1.6	1.46 ± 0.57	52.2 ± 20.4	1.74 ± 0.84	0.80 ± 0.31	0.0	0.0		89	0.0	
CC1(C)C2CC1C(OC1OC(C(=O)O)C(O)C(O)C1O)C=C2C(=O)O (single isomer, unassigned) [aPM5c, Myrtenic acid-4-O-GlcA]	37.5	79.2	25963	1	1.2	1.28 ± 0.53	52.8 ± 21.6	1.73 ± 0.89	0.79 ± 0.32	0.0	0.0		136	0.7	
α-Pinene-O-GlcA [aPM2a]				0.5		0.51 ± 0.12	33.6 ± 4.8		1.23 ± 0.17					0.9	
